# Source: paper PMC10247784, “Physiological activation of human and mouse bitter taste receptors by bile acids” (Communications Biology, 2023)
# Values joined by “and” are separate entries in the source; they are usually repeats but may differ in a detail not shown here. Equal entries are not always repeated.
# Target: T1, human TAS2R14 (Homo sapiens, UniProt Q9NYV8)
# T1 construct: expressed in transfected cells; host or cells: HEK293T-Gα16gust44
# T1 sequence (Q9NYV8 1-317): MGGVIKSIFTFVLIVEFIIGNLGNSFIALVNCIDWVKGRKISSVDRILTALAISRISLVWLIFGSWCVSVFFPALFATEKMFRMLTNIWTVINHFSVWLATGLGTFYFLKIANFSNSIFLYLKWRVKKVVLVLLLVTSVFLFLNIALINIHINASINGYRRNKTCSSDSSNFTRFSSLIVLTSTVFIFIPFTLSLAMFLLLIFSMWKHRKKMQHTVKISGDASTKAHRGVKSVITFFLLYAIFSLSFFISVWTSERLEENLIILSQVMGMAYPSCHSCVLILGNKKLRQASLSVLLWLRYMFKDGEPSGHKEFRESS
# Test: Calcium imaging assay (FLIPR), HEK293T-Gα16gust44 cells transfected with human TAS2R14
# Type: cell-based
# Conditions: for RLU: TAS2R14 trace
# In short: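 HEK293T-Gα16gust44 cells transiently transfected with the bitter-taste receptor, loaded next day with Fluo-4-AM plus 2.5 mM probenecid, and challenged with bile acids on FLIPR Tetra. Signals mock-subtracted, expressed as ΔF/F vs buffer.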
compound,measurement,setting,value
"C[C@H](CCC(=O)NCCS(=O)(=O)O)[C@H]1CC[C@H]2[C@@H]3[C@H](O)C[C@@H]4C[C@H](O)CC[C@]4(C)[C@H]3C[C@H](O)[C@]12C [Taurocholic Acid, taurocholic acid]",Efficacy = maximal amplitude (ΔF/F),"TAS2R14, bile acids, mean",0.2246
same,"Efficacy (maximal amplitude ΔF/F), individual data points","TAS2R14, bile acids, single replicates, listed as TCA",0.1896 and 0.238 and 0.2462
same,Δ F/F,"TAS2R14, conc. 0,01 mM",-0.01734
same,Δ F/F,"TAS2R14, conc. 0,1 mM",-0.007315
same,Δ F/F,"TAS2R14, conc. 0,03 mM",-0.005139
same,Δ F/F,"TAS2R14, conc. 0,3 mM",0.03332
same,Δ F/F,"TAS2R14, conc. 0,001 mM",-0.02529
same,Δ F/F,"TAS2R14, conc. 1 mM",0.2246
same,Δ F/F,"TAS2R14, conc. 0,003 mM",-0.01812
same,RLU,Time (s) 0,0 RLU
same,RLU,Time (s) 2 (Taurocholic Acid 2.016),15.4574 RLU
same,RLU,Time (s) 4 (Taurocholic Acid 4.016),-13.3747 RLU
same,RLU,Time (s) 6 (Taurocholic Acid 6.016),-38.8354 RLU
same,RLU,Time (s) 8 (Taurocholic Acid 8.016),-33.6332 RLU
same,RLU,Time (s) 12 (Taurocholic Acid 12.016),-53.4595 RLU
same,RLU,Time (s) 14 (Taurocholic Acid 14.016),-55.3521 RLU
same,RLU,Time (s) 16 (Taurocholic Acid 16.016),-65.1913 RLU
same,RLU,Time (s) 18 (Taurocholic Acid 18.016),-43.8232 RLU
same,RLU,Time (s) 18.797 (Chenodeoxycholic Acid 18.765),-59.7397 RLU
same,RLU,Time (s) 20.797 (Chenodeoxycholic Acid 20.781),-48.6104 RLU
same,RLU,Time (s) 22.797 (Chenodeoxycholic Acid 22.781),-37.2936 RLU
same,RLU,Time (s) 24.797 (Chenodeoxycholic Acid 24.781),-25.1873 RLU
same,RLU,Time (s) 26.797 (Chenodeoxycholic Acid 26.781),-30.6749 RLU
same,RLU,Time (s) 28.797 (Chenodeoxycholic Acid 28.781),4.524 RLU
same,RLU,Time (s) 30.797 (Chenodeoxycholic Acid 30.781),-8.18 RLU
same,RLU,Time (s) 32.797 (Chenodeoxycholic Acid 32.781),30.1537 RLU
same,RLU,Time (s) 34.797 (Chenodeoxycholic Acid 34.781),70.0865 RLU
same,RLU,Time (s) 36.797 (Chenodeoxycholic Acid 36.781),98.6425 RLU
same,RLU,Time (s) 38.797 (Chenodeoxycholic Acid 38.781),134.228 RLU
same,RLU,Time (s) 40.797 (Chenodeoxycholic Acid 40.781),192.709 RLU
same,RLU,Time (s) 42.797 (Chenodeoxycholic Acid 42.781),232.913 RLU
same,RLU,Time (s) 44.797 (Chenodeoxycholic Acid 44.781),243.453 RLU
same,RLU,Time (s) 46.797 (Chenodeoxycholic Acid 46.781),297.017 RLU
same,RLU,Time (s) 48.797 (Chenodeoxycholic Acid 48.781),343.953 RLU
same,RLU,Time (s) 50.797 (Chenodeoxycholic Acid 50.781),379.622 RLU
same,RLU,Time (s) 52.797 (Chenodeoxycholic Acid 52.781),398.833 RLU
same,RLU,Time (s) 54.797 (Chenodeoxycholic Acid 54.781),459.728 RLU
same,RLU,Time (s) 56.797 (Chenodeoxycholic Acid 56.781),470.92 RLU
same,RLU,Time (s) 58.797 (Chenodeoxycholic Acid 58.781),515.163 RLU
same,RLU,Time (s) 60.797 (Chenodeoxycholic Acid 60.781),529.36 RLU
same,RLU,Time (s) 62.797 (Chenodeoxycholic Acid 62.781),543.404 RLU
same,RLU,Time (s) 64.797 (Chenodeoxycholic Acid 64.781),572.542 RLU
same,RLU,Time (s) 66.797 (Chenodeoxycholic Acid 66.781),570.299 RLU
same,RLU,Time (s) 68.797 (Chenodeoxycholic Acid 68.781),602.865 RLU
same,RLU,Time (s) 70.797 (Chenodeoxycholic Acid 70.781),609.474 RLU
same,RLU,Time (s) 72.797 (Chenodeoxycholic Acid 72.781),663.572 RLU
same,RLU,Time (s) 74.797 (Chenodeoxycholic Acid 74.781),688.158 RLU
same,RLU,Time (s) 76.797 (Chenodeoxycholic Acid 76.781),696.58 RLU
same,RLU,Time (s) 78.797 (Chenodeoxycholic Acid 78.781),702.313 RLU
same,RLU,Time (s) 80.797 (Chenodeoxycholic Acid 80.781),724.676 RLU
same,RLU,Time (s) 82.797 (Chenodeoxycholic Acid 82.781),729.222 RLU
same,RLU,Time (s) 84.797 (Chenodeoxycholic Acid 84.781),755.668 RLU
same,RLU,Time (s) 86.797 (Chenodeoxycholic Acid 86.781),758.133 RLU
same,RLU,Time (s) 88.797 (Chenodeoxycholic Acid 88.781),801.791 RLU
same,RLU,Time (s) 90.797 (Chenodeoxycholic Acid 90.781),813.667 RLU
same,RLU,Time (s) 92.797 (Chenodeoxycholic Acid 92.781),823.99 RLU
same,RLU,Time (s) 94.797 (Chenodeoxycholic Acid 94.781),849.724 RLU
same,RLU,Time (s) 96.797 (Chenodeoxycholic Acid 96.781),840.46 RLU
same,RLU,Time (s) 98.797 (Chenodeoxycholic Acid 98.781),832.423 RLU
same,RLU,Time (s) 100.797 (Chenodeoxycholic Acid 100.781),870.888 RLU
same,RLU,Time (s) 102.797 (Chenodeoxycholic Acid 102.781),887.784 RLU
same,RLU,Time (s) 104.797 (Chenodeoxycholic Acid 104.781),895.487 RLU
same,RLU,Time (s) 106.797 (Chenodeoxycholic Acid 106.781),886.141 RLU
same,RLU,Time (s) 108.797 (Chenodeoxycholic Acid 108.781),931.883 RLU
same,RLU,Time (s) 110.797 (Chenodeoxycholic Acid 110.781),935.64 RLU
same,RLU,Time (s) 112.797 (Chenodeoxycholic Acid 112.781),971.794 RLU
same,RLU,Time (s) 114.797 (Chenodeoxycholic Acid 114.781),962.409 RLU
same,RLU,Time (s) 116.797 (Chenodeoxycholic Acid 116.781),993.706 RLU
same,RLU,Time (s) 118.797 (Chenodeoxycholic Acid 118.781),1000.54 RLU
same,RLU,Time (s) 120.797 (Chenodeoxycholic Acid 120.781),1025.82 RLU
same,RLU,Time (s) 122.797 (Chenodeoxycholic Acid 122.781),1039.5 RLU
same,RLU,Time (s) 124.797 (Chenodeoxycholic Acid 124.781),1041.39 RLU
same,RLU,Time (s) 126.797 (Chenodeoxycholic Acid 126.781),1050.25 RLU
same,RLU,Time (s) 128.797 (Chenodeoxycholic Acid 128.781),1043.78 RLU
same,RLU,Time (s) 130.797 (Chenodeoxycholic Acid 130.781),1042.75 RLU
same,RLU,Time (s) 132.797 (Chenodeoxycholic Acid 132.781),1039.88 RLU
same,RLU,Time (s) 134.797 (Chenodeoxycholic Acid 134.781),1050.77 RLU
same,RLU,Time (s) 136.797 (Chenodeoxycholic Acid 136.781),1036.12 RLU
same,RLU,"Time (s) 137.562 (Taurocholic Acid 137.563, Chenodeoxycholic Acid 137.546)",1048.18 RLU
same,RLU,"Time (s) 143.578 (Taurocholic Acid 143.563, Chenodeoxycholic Acid 143.546)",1008.4 RLU
same,RLU,"Time (s) 149.578 (Taurocholic Acid 149.563, Chenodeoxycholic Acid 149.546)",998.739 RLU
same,RLU,"Time (s) 155.578 (Taurocholic Acid 155.563, Chenodeoxycholic Acid 155.546)",977.028 RLU
same,RLU,"Time (s) 161.578 (Taurocholic Acid 161.563, Chenodeoxycholic Acid 161.546)",958.674 RLU
same,RLU,"Time (s) 167.578 (Taurocholic Acid 167.563, Chenodeoxycholic Acid 167.546)",918.668 RLU
same,RLU,"Time (s) 173.578 (Taurocholic Acid 173.563, Chenodeoxycholic Acid 173.546)",888.356 RLU
same,RLU,"Time (s) 179.578 (Taurocholic Acid 179.563, Chenodeoxycholic Acid 179.546)",847.479 RLU
same,RLU,"Time (s) 191.578 (Taurocholic Acid 191.563, Chenodeoxycholic Acid 191.546)",745.479 RLU
same,RLU,"Time (s) 197.578 (Taurocholic Acid 197.563, Chenodeoxycholic Acid 197.546)",696.127 RLU
same,RLU,"Time (s) 209.578 (Taurocholic Acid 209.563, Chenodeoxycholic Acid 209.546)",643.487 RLU
same,RLU,"Time (s) 221.578 (Taurocholic Acid 221.563, Chenodeoxycholic Acid 221.546)",526.781 RLU
same,RLU,"Time (s) 233.578 (Taurocholic Acid 233.563, Chenodeoxycholic Acid 233.546)",416.225 RLU
same,RLU,"Time (s) 239.578 (Taurocholic Acid 239.563, Chenodeoxycholic Acid 239.546)",342.018 RLU
same,RLU,"Time (s) 245.578 (Taurocholic Acid 245.563, Chenodeoxycholic Acid 245.546)",303.535 RLU
same,RLU,"Time (s) 293.578 (Taurocholic Acid 293.563, Chenodeoxycholic Acid 293.546)",127.213 RLU
same,RLU,"Time (s) 299.578 (Taurocholic Acid 299.563, Chenodeoxycholic Acid 299.546)",108.412 RLU
same,RLU,"Time (s) 305.578 (Taurocholic Acid 305.563, Chenodeoxycholic Acid 305.546)",98.929 RLU
same,RLU,"Time (s) 311.578 (Taurocholic Acid 311.563, Chenodeoxycholic Acid 311.546)",88.6159 RLU
same,RLU,"Time (s) 317.578 (Taurocholic Acid 317.563, Chenodeoxycholic Acid 317.546)",79.3923 RLU
same,RLU,"Time (s) 323.578 (Taurocholic Acid 323.563, Chenodeoxycholic Acid 323.546)",80.4704 RLU
same,RLU,"Time (s) 329.578 (Taurocholic Acid 329.563, Chenodeoxycholic Acid 329.546)",68.4196 RLU
same,RLU,"Time (s) 335.578 (Taurocholic Acid 335.563, Chenodeoxycholic Acid 335.546)",88.4103 RLU
same,RLU,"Time (s) 341.578 (Taurocholic Acid 341.563, Chenodeoxycholic Acid 341.546)",53.5929 RLU
same,RLU,"Time (s) 347.578 (Taurocholic Acid 347.563, Chenodeoxycholic Acid 347.546)",48.7046 RLU
same,RLU,"Time (s) 353.578 (Taurocholic Acid 353.563, Chenodeoxycholic Acid 353.546)",68.797 RLU
same,RLU,"Time (s) 359.578 (Taurocholic Acid 359.563, Chenodeoxycholic Acid 359.546)",47.7517 RLU
same,Activation threshold concentration TAS2R14,lowest concentration with significantly increased fluorescence vs empty vector (p < 0.01),300 µM
